These results are taken from PMC7144022, “Quinolinecarboxamides Inhibit the Replication of the Bovine Viral Diarrhea Virus by Targeting a Hot Spot for the Inhibition of Pestivirus Replication in the RNA-Dependent RNA Polymerase” (Molecules, 2020).

Data set [1] can be described thus: Cytotoxicity assay, proliferation of exponentially growing MDBK cells (MTS/PMS). The conditions noted are these: bovine. The format is cell-based, bovine. The protocol:
Assays were carried out, as described previously.

A further data set deals with BVDV NADL virus. Briefly: CPE-based antiviral assay, BVDV NADL in MDBK cells (MTS/PMS). The conditions noted are these: for pEC50: Bovine viral diarrhea virus isolates and strains, MDBK, 72 h; for S.I.: selectivity index, CC50 vs EC50.
Where [2] appears, read: sheet CSFCII#, potency relative to TO502-2403 (EC50 0.2 µM).
The mark [3] stands for this setting: sheet CSFCI#, potency relative to TO505-6180 (EC50 0.07 µM).

pEC50: −log10 of the molar value.

Usually CC50 stands for the concentration at which the toxic effect on the cells reaches its halfway point. Low readings indicate greater toxicity to the cells, high ones lower toxicity to the cells. As a reminder, the pEC50 is the EC50 on a negative log10 scale, so that one unit is a factor of ten. High values mean a small EC50, low ones a large EC50. The compound `Cc1cccc2sc(NC(=O)c3cc(-c4ccccc4F)nc4c(F)cccc34)nc12` [CSFC-103, Fc1ccccc1c3nc2c(cccc2F)c(c3)C(=O)Nc4nc5c(C)cccc5s4] came in with a CC50 at 5 days in data set [1] greater than 100 µM. In the data set on BVDV NADL virus, this compound gave a negative-log EC50 (pEC50) of 6.30 and a S.I. of 200. The fold increase with BVDV NADL virus (setting [2]) came to 0.40.

`Cc1cc2nc(NC(=O)c3cc(-c4ccco4)nc4ccccc34)sc2cc1C` [CSFC-39, Cc1cc2nc(NC(=O)c3cc(nc4ccccc43)c3ccco3)sc2cc1C] displayed a CC50 at 5 days in data set [1] greater than 100 µM. In addition, in the data set with BVDV NADL virus, the pEC50 is 6.22 and the S.I. was 167. The fold increase in the data set on BVDV NADL virus (setting [3]) is reported as 0.12.

The compound `O=C(Nc1ccncc1)c1cc(-c2ccccc2)nc2ccccc12` [CSFC-8, O=C(Nc1ccncc1)c1cc(nc2ccccc21)c1ccccc1] yielded a cytotoxic concentration (CC50) at 5 days in data set [1] greater than 100 µM. For the same compound, in the data set on BVDV NADL virus, the negative logarithm of the EC50 (pEC50) is less than 4.00 and the S.I. stood at 1. In addition, in the data set with BVDV NADL virus (setting [3]), the fold increase turned out to be 0.0007.

For the compound `Cc1cccc2sc(NC(=O)c3cc(-c4ccco4)nc4ccc(CO)cc34)nc12` [CSFC-74, OCc1cc2c(cc1)nc(cc2C(=O)Nc1nc2c(C)cccc2s1)c1ccco1], in data set [1], the half-maximal cytotoxic concentration (CC50) at 5 days is greater than 100 µM. In the data set on BVDV NADL virus, the negative-log EC50 (pEC50) was 4.00 and the S.I. is on record as 1. Besides, the fold increase in the data set with BVDV NADL virus (setting [2]) was 0.002.

As to `COc1cccc2sc(NC(=O)c3cc(-c4cccs4)nc4ccccc34)nc12` [CSFC-89, COc1cccc2sc(nc12)NC(=O)c4cc(nc3ccccc34)c5cccs5], in data set [1], the half-maximal cytotoxic concentration (CC50) at 5 days was greater than 100 µM. Further, in the data set with BVDV NADL virus, the pEC50 was 6.22 and the S.I. came to 167. The fold increase in the data set with BVDV NADL virus (setting [2]) is recorded as 0.33.

In turn, `COc1ccc(-c2cc(C(=O)Nc3nc4c(C)cccc4s3)c3ccccc3n2)cc1` [CSFC-117, COc1ccc(cc1)c3nc2ccccc2c(c3)C(=O)Nc4nc5c(C)cccc5s4] showed a CC50 at 5 days in data set [1] greater than 100 µM. In the data set with BVDV NADL virus, the negative logarithm of the EC50 (pEC50) is 5.77 and the S.I. is listed as 59. Also, the fold increase with BVDV NADL virus (setting [2]) stood at 0.12.

For `O=C(Nc1ccn(-c2ccccc2)n1)c1cc(-c2ccccc2Cl)nc2ccccc12` [CSFC-111, Clc1ccccc1c3nc2ccccc2c(c3)C(=O)Nc4ccn(n4)c5ccccc5], the cytotoxic concentration (CC50) at 5 days in data set [1] was greater than 100 µM. In the data set on BVDV NADL virus, this compound had a pEC50 of 6.40 and a S.I. of 250. The fold increase in the data set on BVDV NADL virus (setting [2]) stood at 0.50.

The compound `Cc1ccc2nc(NC(=O)c3cc4ccccc4n3C)sc2c1` [CSFC-26, Cn1c2ccccc2cc1C(=O)Nc1nc2ccc(C)cc2s1] registered a CC50 at 5 days in data set [1] greater than 100 µM. Further, in the data set on BVDV NADL virus, the pEC50 was less than 4.00 and the S.I. was 1. In the data set on BVDV NADL virus (setting [3]), the fold increase is given as 0.0007.

Turning to `Cc1ccc(-c2cc(C(=O)Nc3nc4c(C)cccc4s3)c3ccccc3n2)cc1` [CSFC-120, Cc1ccc(cc1)c3nc2ccccc2c(c3)C(=O)Nc4nc5c(C)cccc5s4], in data set [1], the 50% cytotoxic concentration (CC50) at 5 days was greater than 100 µM. In the data set on BVDV NADL virus, this compound gave a negative-log EC50 (pEC50) of 6.70 and a S.I. of 500. Further, the fold increase in the data set with BVDV NADL virus (setting [2]) was 1.00.

Compound `COc1ccc2nc(NC(=O)c3cc(-c4ccco4)nc4c(F)cccc34)sc2c1` [CSFC-83, Fc5cccc1c5nc(cc1C(=O)Nc2nc3ccc(cc3s2)OC)c4ccco4] showed a cytotoxic concentration (CC50) at 5 days in data set [1] greater than 100 µM. In the data set on BVDV NADL virus, this compound gave a negative-log EC50 (pEC50) of 7.15 and a S.I. of 1429. In addition, in the data set with BVDV NADL virus (setting [2]), the fold increase came out at 2.86.

In the case of `Cc1cccc2sc(NC(=O)c3cc(-c4cccs4)nc4ccc(Br)cc34)nc12` [CSFC-95, Brc1cc2c(cc1)nc(cc2C(=O)Nc3nc4c(C)cccc4s3)c5cccs5], the CC50 at 5 days in data set [1] is greater than 100 µM. In the data set on BVDV NADL virus, this compound had a pEC50 of 5.51 and a S.I. of 32. Moreover, in the data set with BVDV NADL virus (setting [2]), the fold increase came out at 0.0645.

In turn, `O=C(Nc1nc2ccc(Cl)cc2s1)c1cc(-c2ccccc2)nc2ccccc12` [CSFC-10, Clc1ccc2nc(NC(=O)c3cc(nc4ccccc43)c3ccccc3)sc2c1] came in with a half-maximal cytotoxic concentration (CC50) at 5 days in data set [1] greater than 100 µM. In the data set on BVDV NADL virus, this compound had a pEC50 of 6.30 and a S.I. of 200. The fold increase in the data set with BVDV NADL virus (setting [3]) worked out at 0.14.
